Entries after “also recorded” stand apart in the source; their conditions may differ. Ends that are not written are not given here.
How the values were obtained:
[1] = test system: ERK phosphorylation in PC3-101P3A11 cells; assay: ERK phosphorylation in PC3-101P3A11 and PC3-neo cells (anti-Phospho-ERK Western blot); format: cell-based, human; conditions: for inhibition of ERK phosphorylation and activation: PC3-101P3A11 and 3T3-101P3A11 cells, FBS
Procedure: Using Western blotting and other techniques, the ability of 101P3A11 to regulate these pathways is confirmed. Cells expressing or lacking 101P3A11 are either left untreated or stimulated with cytokines, androgen and anti-integrin antibodies. Cell lysates were analyzed using anti-phospho-specific antibodies (Cell Signaling, Santa Cruz Biotechnology) in order to detect phosphorylation and regulation of ERK, p38, AKT, PI3K, PLC and other signaling molecules. […] In the experiment, data shown in FIG. 26, control 3T3-neo and 3T3-101P3A11 cells were either treated with 0.5 or 10% FBS and whole cell lysates were analyzed by anti-phosphotyrosine Western blotting.
In this experiment, control PC3-neo cells and PC3-101P3A11 cells were left untreated (0.1% FBS) or were stimulated with 10% FBS, lipophosphatidic acid (LPA), gastrin releasing peptide (GRP), leukotriene (LKB4) or platelet activating factor (PAF). The cells were lysed and analyzed by Western blotting using anti-Phospho-ERK (FIG. 27A) or anti-ERK (FIG. 27B) mAb. […] In order to delineate the signaling pathway by which 101P3A11 mediates ERK phosphorylation in cancer cells, it was confirmed which of the two pathway inhibitors: MEK inhibitor PD98059 or the p38 inhibitor SB203580 regulate 101P3A11 mediated ERK phosphorylation (FIG. 28). […] Cells were lysed and analyzed by Western blotting using anti-Phospho-ERK or anti-ERK mAb. Treatment with 10% FBS or with GRP induced the phosphorylation of ERK in PC3-101P3A11 but not in control PC3-neo cells. 101P3A11-mediated ERK phosphorylation was inhibited by the MEK-1 inhibitor PD98059 but not the p38 inhibitor SB203580 or genistein.
Results in FIGS. 26-28 indicate that 101P3A11 regulates the activity of kinases, including ERK, and phosphatases. In order to confirm the association of 101P3A11 with phosphatase activity, the effect of the protein phosphatase inhibitor sodium orthovanadate on 101P3A11 mediated ERK phosphorylation was determined (FIG. 29). PC3-neo and PC3-101P3A11 cells were grown in media alone or in the presence of sodium orthovanadate (Na3VO4), and were stimulated with 0.1% or 10% FBS. Cells were lysed and analyzed by Western blotting using anti-Phospho-ERK or anti-ERK mAb. […] Results in FIG. 29 confirm the contribution of protein phosphatases to 101P3A11 mediated signaling.
In order to determine whether 101P3A11 signaling results in the activation of EGFR, we compared the effect of the EGFR inhibitor, AG1517, on EGFR- and 101P3A11-mediated ERK phosphorylation (FIG. 30). In FIG. 30, PC3-neo and PC3-101P3A11 cells were grown in media alone (0.1% FBS) or in the presence of AG1517. The cells were stimulated with 0.1% or 10% FBS, GRP or EGF, lysed and analyzed by Western blotting using anti-Phospho-ERK or anti-ERK mAb. Treatment with 10% FBS, GRP and EGF induced ERK phosphorylation in PC3-101P3A11 cells. […] Data in FIG. 30 indicate that some cross talk occurred between 101P3A11 and EGFR signaling pathways.
(§1) Since adenylate cyclase activity modulates intracellular levels of cAMP and induce downstream signaling events such as activation of protein kinase A, calcium and ERK MAPK signaling (Pierce K. L., et al, Oncogene. 2001, 20: 1532), we determined that PTX, an inhibitor of adenylate cyclase signaling, prevents 101P3A11-mediated ERK phosphorylation along with inhibiting cAMP accumulation (FIG. 33 and FIG. 34). PC3-neo and PC3-101P3A11 cells were grown overnight in 0.1% FBS in media alone or in the presence of pertussis toxin (PTX). Cells were stimulated with 0.1% or 10% FBS (FIG. 33) or 10% FBS, EGF or GRP (FIG. 34). Cells were lysed and analyzed by Western blotting using anti-Phospho-ERK mAb. Expression of 101P3A11 mediated ERK phosphorylation by 10% FBS in PC3 cells, which was inhibited by PTX (FIG. 33 and FIG. 34).
GPCR transmit their signal by activating trimeric G proteins. […]

3T3-101P3A11 cells = assay: Proliferation of 3T3 and 3T3-101P3A11 cells (Alamar blue); format: cell-based; conditions: for effect on proliferation: control 3T3 cells
PC3-101P3A11 cells = assay: Proliferation of PC3-101P3A11 and PC3-neo cells; format: cell-based, human; conditions: PC3-101P3A11 cells grown in 5% FBS
Procedure: as §1
GPCR transmit their signal by activating trimeric G proteins. Once GPCRs are activated, the associated Ga subunit binds GTP, dissociates from the receptor and participates in downstream signaling events (Schild, D., and Restrepo, D. Physiol Rev. 1998, 78:429-66). In order to determine that inhibition of Ga subunits has an effect on 101P3A11 mediated cell growth, the effect of two Ga inhibitors on the proliferation of 3T3-101P3A11 cells was investigated. Control 3T3 and 3T3-101P3A11 cells were grown in the presence or absence of suramin or its derivative NF 449 (Sigma). Cells were analyzed for proliferation 72 hours later (FIG. 35). The experiment was performed in triplicate. […] This response was 101P3A11 specific as suramin and NF449 had no effect on the proliferation of control 3T3 cells. Similarly, inhibition of G protein activation by suramin and NF449 in PC3 cells inhibits the proliferation of PC3-101P3A11 cells grown in 5% FBS (Figure M4). […] This ERK phosohorylation and activation was inhibited by suramin and NF449 in PC3-101P3A11 and 3T3-101P3A11 cells. ERK phosphorylation was inhibited in a dose dependent manner in PC3-101P3A11 cells treated with suramin. […]

LAPC-9 cells = assay: Androgen regulation in LAPC-9 cells (Northern blot); format: cell-based; conditions: charcoal-stripped medium
Procedure: In order to assay for androgen regulation of 101P3A11 expression, LAPC-9 cells were grown in charcoal-stripped medium and stimulated with the synthetic androgen mibolerone, for either 14 or 24 hours (FIG. 15A, FIG. 15B, and FIG. 15C). Northern blots with 10 μg of total RNA/lane were probed with the 101P3A11 sequences (FIG. 15A). A picture of the ethidium-bromide staining of the RNA gel is also presented (FIG. 15C). […] The experimental samples were confirmed by testing for the expression of the androgen-regulated prostate cancer gene PSA (FIG. 15B).

3T3-101P3A11 tumors = assay: Subcutaneous growth of 3T3-101P3A11 tumors in SCID mice; format: in vivo
Procedure: (2) Regulated expression under control of an inducible vector system, such as ecdysone, tet, etc., can be used provided such promoters are compatible with the host cell systems. […] FIG. 21 compares subcutaneous growth of control 3T3-neo and 3T3-101P3A11 cells. One million cells stably expressing neo or 101P3A11 were injected subcutaneously in SCID mice along with matrigel. Tumor volume was evaluated by caliper measurements. […] Additionally, SCID mice were implanted with the same 3T3-101P3A11 cells orthotopically in the prostate to determine if 101P3A11 has an effect on local growth in the prostate or on the ability of the cells to metastasize, specifically to lungs or lymph nodes. […] In an analogous manner, cells can be implanted orthotopically in the bladder, colon or kidney. (Saffran, D., et al., PNAS 10:1073-1078; Fu, X., et al., Int. J. Cancer, 1991, 49: p. 938-939; Chang, S., et al., Anticancer Res., 1997, 17: p. 3239-3242; Peralta, E. A., et al., J. Urol., 1999, 162: p. 1806-1811). The tumor enhancing effect of 101P3A11 was also observed when 101P3A11 is expressed in prostate cancer cells such as PC3 and introduced into the prostate of SCID mice (Figure M11). A 2.5 fold increase in tumor weight is observed in tumors expressing 101P3A11 relative to control cells.
Furthermore, these assays is useful to confirm the anti-101P3A11 inhibitory effects of candidate therapeutic compositions, such as for example, 101P3A11 antibodies or intrabodies, and 101P3A11 antisense molecules or ribozymes, or 101P3A11 directed small molecules. In FIG. 22, we depict the effect of a small molecule, pertussis toxin (PTX) on tumor formation by 3T3-101P3A11 cells. In this experiment, SCID mice were injected with 3T3-101P3A11 alone or in conjunction with PTX. Each mouse was given 5 doses of PTX at 3-4 days interval. Tumor volume was evaluated by caliper measurements. […] Similarly, treatment with the G-protein inhibitor suramin inhibits the growth of 3T3-101P3A11 tumors (Figure M13).

[2] = 101P3A11 expressing 3T3 cells, Alamar blue after 72 hours

For platelet activating factor [PAF], the “ERK phosphorylation by GPCR ligands” value ([1]; PC3-101P3A11 cells) was “significant ERK phosphorylation”.

For `COc1cc2ncnc(Nc3cccc(Br)c3)c2cc1OC` [AG1517], the “inhibition of 101P3A11 mediated ERK phosphorylation” value ([1]; PC3-101P3A11 cells treated with 10% FBS) was “partially inhibits” and the “inhibition of EGF-mediated ERK phosphorylation” value ([1]; control and 101P3A11-expressing PC3 cells, EGF) was “completely inhibited; also recorded: inhibits”.

`O=C(Nc1cc(C(=O)Nc2ccc(S(=O)(=O)O)cc2S(=O)(=O)O)cc(C(=O)Nc2ccc(S(=O)(=O)O)cc2S(=O)(=O)O)c1)Nc1cc(C(=O)Nc2ccc(S(=O)(=O)O)cc2S(=O)(=O)O)cc(C(=O)Nc2ccc(S(=O)(=O)O)cc2S(=O)(=O)O)c1` [NF449] was tested, and the inhibition of proliferation (3T3-101P3A11 cells; 3T3-101P3A11 cells, 72 hours) was 80%, the inhibition of proliferation (3T3-101P3A11 cells; [2]) was “inhibited” and the effect on proliferation (3T3-101P3A11 cells; 72 hours) was “no effect”. For the same compound, the “inhibition of ERK phosphorylation and activation” value [1] was “inhibited” and the inhibition of proliferation (PC3-101P3A11 cells) was “inhibits”.

“gastrin releasing peptide (VPLPAGGGTVLTKMYPRGNHWAVGHLM; ends and bridges not checked; UniProt P07492 24-50, looked up) [GRP, GPCR ligand]” was tested, and the “ERK phosphorylation by GPCR ligands” value ([1]; PC3-101P3A11 cells) was “significant ERK phosphorylation”.

`C[C@@H]1CC2=CC(=O)CC[C@@H]2[C@H]2CC[C@@]3(C)[C@@H](CC[C@]3(C)O)[C@@H]21` [mibolerone] was tested, and the “expression of PSA” value (LAPC-9 cells; 14 and 24 hours) was “induced” and the “expression of 101P3A11” value (LAPC-9 cells; 14 or 24 hours) was “not regulated”.

For `CCCCC/C=C\C[C@@H](O)/C=C/C=C/C=C\[C@@H](O)CCCC(=O)O` [LKB4, leukotriene], the “ERK phosphorylation by GPCR ligands” value ([1]; PC3-101P3A11 cells) was “more modest level of ERK phosphorylation”.

In the case of lipophosphatidic acid [LPA], the “ERK phosphorylation by GPCR ligands” value ([1]; PC3-101P3A11 cells) is reported as “significant ERK phosphorylation”.

`COc1cccc(-c2cc(=O)c3ccccc3o2)c1N` [PD98059] was tested, and the “inhibition of 101P3A11-mediated ERK phosphorylation” value ([1]; PC3-101P3A11 cells stimulated with FBS or GRP) was “inhibited”.

`[Na+].[Na+].[Na+].[O]=[V]([O-])([O-])[O-]` [Na3VO4, sodium orthovanadate] was tested, and the “increase in ERK phosphorylation” value ([1]; PC3-101P3A11 cells) was 4.5 fold and the “increase in ERK phosphorylation” value ([1]; PC3-neo cells) was “two-fold increase”.

In the case of `Cc1ccc(C(=O)Nc2ccc(S(=O)(=O)O)c3cc(S(=O)(=O)O)cc(S(=O)(=O)O)c23)cc1NC(=O)c1cccc(NC(=O)Nc2cccc(C(=O)Nc3cc(C(=O)Nc4ccc(S(=O)(=O)O)c5cc(S(=O)(=O)O)cc(S(=O)(=O)O)c45)ccc3C)c2)c1` [suramin], the inhibition of proliferation (3T3-101P3A11 cells; 3T3-101P3A11 cells, 72 hours) is reported as 60%, the inhibition of proliferation (3T3-101P3A11 cells; [2]) is reported as “inhibited” and the effect on proliferation (3T3-101P3A11 cells; 72 hours) is reported as “no effect”. For the same compound, the “inhibition of ERK phosphorylation and activation” value [1] was “inhibited”, the inhibition of proliferation (PC3-101P3A11 cells) was “inhibits” and the “inhibition of growth of 3T3-101P3A11 tumors” value (3T3-101P3A11 tumors) was “inhibits”.
